From PubChem BioAssay AID330 (DTP/NCI, 2004)
Where “and” joins values, the source holds several entries; their conditions need not be identical. Equal entries are not always repeated. Toxic doses and inconclusive results are not listed. The calls were made as follows: active = survival T/C of 150% or more; inactive = T/C below 125% in these data.

System: P388 leukemia ip, CD2F1 mice, survival T/C
Experiment: NCI In Vivo Anticancer Drug Screen. Data for tumor model P388 Leukemia (intraperitoneal) in CD2F1 (CDF1) mice
Details: endpoint: median survival time, higher = longer survival
Procedure, shortened: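 Mice carrying the transplanted tumor received test compound or vehicle. Survival was recorded in each group, and the value is the treated-group measurement divided by that of the vehicle-treated control group.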

[1] = dose: 50.0 mg/kg/injection, schedule: Q01DX005 (ip), vehicle: saline with Tween-80
[2] = dose: 100.0 mg/kg/injection, schedule: Q01DX005 (ip), vehicle: saline with Tween-80
[3] = dose: 200.0 mg/kg/injection, schedule: Q01DX005 (ip), vehicle: saline with Tween-80
[4] = dose: 50.0 mg/kg/injection, schedule: Q01DX005 (ip), vehicle: Klucel (hydroxypropylcellulose) (HPC)
[5] = dose: 100.0 mg/kg/injection, schedule: Q01DX005 (ip), vehicle: Klucel (hydroxypropylcellulose) (HPC)
[6] = dose: 50.0 mg/kg/injection, schedule: Q01DX009 (ip), vehicle: saline
[7] = dose: 12.5 mg/kg/injection, schedule: Q01DX009 (ip), vehicle: saline
[8] = dose: 25.0 mg/kg/injection, schedule: Q01DX009 (ip), vehicle: saline
[9] = dose: 60.0 mg/kg/injection, schedule: Q01DX005 (ip), vehicle: saline with Tween-80
[10] = dose: 120.0 mg/kg/injection, schedule: Q01DX005 (ip), vehicle: saline with Tween-80
[11] = dose: 240.0 mg/kg/injection, schedule: Q01DX005 (ip), vehicle: saline with Tween-80
[12] = dose: 200.0 mg/kg/injection, schedule: Q01DX005 (ip), vehicle: Klucel (hydroxypropylcellulose) (HPC)

Measured: T/C

CN1CCN(Cc2ccccc2)C(C#N)C1 (stereo unspecified)
inactive: dose: 3.13 mg/kg/injection, schedule: Q01DX005 (ip), vehicle: water 100 % of control | dose: 6.25 mg/kg/injection, schedule: Q01DX005 (ip), vehicle: water 95 % of control | dose: 12.5 mg/kg/injection, schedule: Q01DX005 (ip), vehicle: water 93 % of control | dose: 25.0 mg/kg/injection, schedule: Q01DX005 (ip), vehicle: water 100 % of control | dose: 50.0 mg/kg/injection, schedule: Q01DX005 (ip), vehicle: water 105 % of control and 112 % of control | dose: 100.0 mg/kg/injection, schedule: Q01DX005 (ip), vehicle: water 105 % of control

CC(=O)c1c(O)c2ccc(Cl)cc2[nH]c1=O
inactive: [1] 99 % of control | [2] 96 % of control | [3] 99 % of control

CC1=C2CC(C)(C)/C=C\C(=O)/C(C)=C\C3=CCCC3(O2)C1=O (stereo unspecified)
inactive: dose: 5.0 mg/kg/injection, schedule: Q01DX005 (ip), vehicle: Klucel (hydroxypropylcellulose) (HPC) 110 % of control | dose: 10.0 mg/kg/injection, schedule: Q01DX005 (ip), vehicle: Klucel (hydroxypropylcellulose) (HPC) 120 % of control | dose: 20.0 mg/kg/injection, schedule: Q01DX005 (ip), vehicle: Klucel (hydroxypropylcellulose) (HPC) 107 % of control

C1CC2CC1C13OC1CC1OC213 (stereo unspecified)
inactive: dose: 100.0 mg/kg/injection, schedule: Q04DX002 (ip), vehicle: Klucel (hydroxypropylcellulose) (HPC) 104 % of control | dose: 200.0 mg/kg/injection, schedule: Q04DX002 (ip), vehicle: Klucel (hydroxypropylcellulose) (HPC) 105 % of control | dose: 400.0 mg/kg/injection, schedule: Q04DX002 (ip), vehicle: Klucel (hydroxypropylcellulose) (HPC) 111 % of control

O=C(O)c1ccc2c3c(n[se]c13)-c1ccccc1C2=O
inactive: [4] 99 % of control | [5] 103 % of control

CSc1ncc(Br)c(C(=O)O)n1
inactive: dose: 100.0 mg/kg/injection, schedule: Q04DX003 (ip), vehicle: saline with Tween-80 100 % of control | dose: 200.0 mg/kg/injection, schedule: Q04DX003 (ip), vehicle: saline with Tween-80 100 % of control | dose: 400.0 mg/kg/injection, schedule: Q04DX003 (ip), vehicle: saline with Tween-80 100 % of control

N=C(N)SCCC(=O)NCNC(=O)CCSC(=N)N
inactive: dose: 50.0 mg/kg/injection, schedule: Q01DX005 (ip), vehicle: suspension in saline 98 % of control | dose: 100.0 mg/kg/injection, schedule: Q01DX005 (ip), vehicle: suspension in saline 99 % of control

CC1=NC(C)(CO)CO1 (stereo unspecified)
inactive: [6] 111 % of control | dose: 100.0 mg/kg/injection, schedule: Q01DX009 (ip), vehicle: saline 111 % of control | dose: 200.0 mg/kg/injection, schedule: Q01DX009 (ip), vehicle: saline 108 % of control | dose: 400.0 mg/kg/injection, schedule: Q01DX009 (ip), vehicle: saline 105 % of control

CCOCCOCCOC12C(=O)C(Cl)=C(Cl)C(=O)C13C1CC2C(Cl)C13 (stereo unspecified)
inactive: [7] 98 % of control | [8] 105 % of control | [6] 105 % of control and 106 % of control

ON1c2ccc3ccccc3c2C=CC1(c1ccccc1)c1ccccc1
inactive: [1] 103 % of control | [2] 103 % of control | [3] 97 % of control

Nc1nnc(/C=C/c2ccccc2)o1
inactive: [9] 117 % of control | [10] 107 % of control | [11] 109 % of control

CC(C)(C)/C=C/N1N=NC(c2ccccc2)(c2ccccc2)C1=O
inactive: [4] 91 % of control | [5] 92 % of control | [12] 96 % of control

CCN1C2=NCCN2S(=O)(=O)c2ccccc21
inactive: [9] 96 % of control | [10] 97 % of control | [11] 97 % of control

Cc1ccc2c(c1)SP(c1ccccc1)S2 (stereo unspecified)
inactive: dose: 100.0 mg/kg/injection, schedule: Q04DX002 (ip), vehicle: saline with Tween-80 103 % of control | dose: 200.0 mg/kg/injection, schedule: Q04DX002 (ip), vehicle: saline with Tween-80 104 % of control | dose: 400.0 mg/kg/injection, schedule: Q04DX002 (ip), vehicle: saline with Tween-80 112 % of control

Nc1cccc(C(=O)NCCNC(=O)c2cccc(N)c2O)c1O
inactive: [4] 98 % of control | [5] 97 % of control | [12] 95 % of control

CN=C(N)NN=C(c1ccc(Br)cc1)c1ccc(Br)cc1
inactive: dose: 25.0 mg/kg/injection, schedule: Q04DX002 (ip), vehicle: saline with Tween-80 100 % of control and 106 % of control | dose: 50.0 mg/kg/injection, schedule: Q04DX002 (ip), vehicle: saline with Tween-80 103 % of control and 124 % of control

Cc1c2cnccc2c(C)c2c1c1ccccc1n2Cc1ccccc1
inactive: dose: 6.25 mg/kg/injection, schedule: Q04DX003 (ip), vehicle: distilled water + Tween-80 97 % of control | dose: 12.5 mg/kg/injection, schedule: Q04DX003 (ip), vehicle: distilled water + Tween-80 95 % of control | dose: 25.0 mg/kg/injection, schedule: Q04DX003 (ip), vehicle: distilled water + Tween-80 95 % of control | dose: 50.0 mg/kg/injection, schedule: Q04DX003 (ip), vehicle: distilled water + Tween-80 95 % of control | dose: 100.0 mg/kg/injection, schedule: Q04DX003 (ip), vehicle: distilled water + Tween-80 99 % of control | dose: 200.0 mg/kg/injection, schedule: Q04DX003 (ip), vehicle: distilled water + Tween-80 94 % of control

CCN(CC)CCCOC(=O)c1ccc(N)cc1
inactive: [7] 100 % of control | dose: 12.5 mg/kg/injection, schedule: Q04DX003 (ip), vehicle: saline 91 % of control | [8] 109 % of control | dose: 25.0 mg/kg/injection, schedule: Q04DX003 (ip), vehicle: saline 91 % of control | [6] 104 % of control | dose: 50.0 mg/kg/injection, schedule: Q04DX003 (ip), vehicle: saline 87 % of control

C[Si](C)(C)CSC#N
inactive: dose: 7.5 mg/kg/injection, schedule: Q01DX005 (ip), vehicle: saline with Tween-80 97 % of control | dose: 15.0 mg/kg/injection, schedule: Q01DX005 (ip), vehicle: saline with Tween-80 101 % of control | dose: 30.0 mg/kg/injection, schedule: Q01DX005 (ip), vehicle: saline with Tween-80 104 % of control

O=C1OC2C(COC(=O)c3cc(O)c(O)c(O)c3)OC(OC(=O)c3cc(O)c(O)c(O)c3)C(OC(=O)c3cc(O)c(O)c4c3C3C1=CC(=O)[C@](O)(O4)C3(O)O)C2OC(=O)c1cc(O)c(O)c(O)c1 (stereo partly specified)
inactive: dose: 6.25 mg/kg/injection, schedule: Q01DX009 (ip), vehicle: saline 98 % of control | [7] 99 % of control | [8] 98 % of control

O=C1CCCCC1C(=O)C(F)(F)F (stereo unspecified)
inactive: dose: 50.0 mg/kg/injection, schedule: Q01DX009 (ip), vehicle: saline + Tween-80 + alcohol 116 % of control | dose: 100.0 mg/kg/injection, schedule: Q01DX009 (ip), vehicle: saline + Tween-80 + alcohol 106 % of control

COc1ccc(Br)cc1/C=C/[N+](=O)[O-]
inactive: dose: 12.5 mg/kg/injection, schedule: Q01DX009 (ip), vehicle: saline with Tween-80 113 % of control | dose: 25.0 mg/kg/injection, schedule: Q01DX009 (ip), vehicle: saline with Tween-80 122 % of control
